The target in assay [1] is T1, Tyrosine-protein phosphatase non-receptor type 7 (Homo sapiens, UniProt P35236).
T1 sequence (P35236 whole entry): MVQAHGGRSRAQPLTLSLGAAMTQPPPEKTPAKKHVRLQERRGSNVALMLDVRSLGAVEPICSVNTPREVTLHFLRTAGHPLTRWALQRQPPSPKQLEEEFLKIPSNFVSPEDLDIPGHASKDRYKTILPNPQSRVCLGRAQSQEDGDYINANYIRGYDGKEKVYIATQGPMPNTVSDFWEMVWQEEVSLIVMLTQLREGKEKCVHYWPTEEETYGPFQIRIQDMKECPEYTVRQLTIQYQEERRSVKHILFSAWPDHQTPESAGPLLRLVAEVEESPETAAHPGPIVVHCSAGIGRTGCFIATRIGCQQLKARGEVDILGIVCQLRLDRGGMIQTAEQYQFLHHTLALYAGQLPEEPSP
Briefly: SAR analysis of chemical inhibitors of HePTP using a Fluorescent assay - Set 2. [Related pubchem assays (depositor defined):AID1059, AID1077, AID1661, AID2085, AID521]. The assay is classed as functional.

Another assay in a line: cells. In kind it is functional, cell-based.
A further assay deals with T2, Protein skinhead-1 (Caenorhabditis elegans, UniProt P34707).
T2 sequence (P34707 whole entry): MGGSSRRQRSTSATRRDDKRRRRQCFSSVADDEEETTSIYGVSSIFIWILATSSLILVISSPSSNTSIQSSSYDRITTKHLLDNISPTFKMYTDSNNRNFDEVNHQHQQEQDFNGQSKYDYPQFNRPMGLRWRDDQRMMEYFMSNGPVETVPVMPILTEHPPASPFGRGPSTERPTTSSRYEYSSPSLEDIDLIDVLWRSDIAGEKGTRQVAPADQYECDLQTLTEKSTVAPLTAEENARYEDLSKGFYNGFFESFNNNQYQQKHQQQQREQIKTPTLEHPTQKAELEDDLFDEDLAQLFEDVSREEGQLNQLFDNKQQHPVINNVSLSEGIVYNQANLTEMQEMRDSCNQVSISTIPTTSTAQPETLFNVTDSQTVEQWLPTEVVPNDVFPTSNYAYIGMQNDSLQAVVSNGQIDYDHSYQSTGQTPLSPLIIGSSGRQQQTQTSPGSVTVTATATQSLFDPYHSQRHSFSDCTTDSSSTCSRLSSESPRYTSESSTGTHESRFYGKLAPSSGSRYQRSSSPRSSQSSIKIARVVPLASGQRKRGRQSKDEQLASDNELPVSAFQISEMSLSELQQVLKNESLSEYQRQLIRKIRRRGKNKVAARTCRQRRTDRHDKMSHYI
In kind it is functional.

In another assay the target is Cytochrome P450 2D6 (Homo sapiens, UniProt P10635).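 Note: CYP2D6 member of a cytochrome P450 panel assay.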
For the next assay, the target named is T3, Cytochrome P450 1A2 (Homo sapiens, UniProt P05177).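 Note: PubChem cytochrome P450 panel assay, CYP1A2 panel member.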
T3 sequence (P05177 whole entry): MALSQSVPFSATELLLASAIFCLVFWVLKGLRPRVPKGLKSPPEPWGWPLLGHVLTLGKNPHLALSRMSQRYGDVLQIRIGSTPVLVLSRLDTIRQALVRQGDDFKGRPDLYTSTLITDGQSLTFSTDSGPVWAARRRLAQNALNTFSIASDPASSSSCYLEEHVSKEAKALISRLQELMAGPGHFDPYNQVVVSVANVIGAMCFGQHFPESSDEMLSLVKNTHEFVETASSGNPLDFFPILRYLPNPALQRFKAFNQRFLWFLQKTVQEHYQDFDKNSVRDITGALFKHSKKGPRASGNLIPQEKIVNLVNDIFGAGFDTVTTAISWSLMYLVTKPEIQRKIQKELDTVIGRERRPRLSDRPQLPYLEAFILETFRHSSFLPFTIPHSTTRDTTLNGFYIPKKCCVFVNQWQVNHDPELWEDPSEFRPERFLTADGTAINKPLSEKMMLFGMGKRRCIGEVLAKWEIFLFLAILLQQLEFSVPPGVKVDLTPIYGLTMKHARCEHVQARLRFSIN

For assay [2], the target named is Glucose-6-phosphate 1-dehydrogenase (Homo sapiens, UniProt P11413). Kind of assay: inhibition of Homo sapiens G6PD, dose series – biochemical, fluorescence, selectivity assay for P. falciparum G6PD inhibitor project, dose response (AID 504792). The assay is classed as functional.
Assay [3] addresses Cystic fibrosis transmembrane conductance regulator/Golgi-associated PDZ and coiled-coil motif-containing protein (Homo sapiens, UniProt P13569+Q9HD26). Briefly: potency against CAL PDZ-peptide interaction – biochemical, fluorescence polarization, Cerulean-tagged CAL PDZ, cherry-picks, dose response (AID 504773). (Fluorescence polarisation rises when a labelled molecule tumbles more slowly, as on binding a larger partner.)

The next assay concerns the target T4, Hexokinase-1 (Homo sapiens, UniProt P19367).
T4 sequence (P19367 whole entry): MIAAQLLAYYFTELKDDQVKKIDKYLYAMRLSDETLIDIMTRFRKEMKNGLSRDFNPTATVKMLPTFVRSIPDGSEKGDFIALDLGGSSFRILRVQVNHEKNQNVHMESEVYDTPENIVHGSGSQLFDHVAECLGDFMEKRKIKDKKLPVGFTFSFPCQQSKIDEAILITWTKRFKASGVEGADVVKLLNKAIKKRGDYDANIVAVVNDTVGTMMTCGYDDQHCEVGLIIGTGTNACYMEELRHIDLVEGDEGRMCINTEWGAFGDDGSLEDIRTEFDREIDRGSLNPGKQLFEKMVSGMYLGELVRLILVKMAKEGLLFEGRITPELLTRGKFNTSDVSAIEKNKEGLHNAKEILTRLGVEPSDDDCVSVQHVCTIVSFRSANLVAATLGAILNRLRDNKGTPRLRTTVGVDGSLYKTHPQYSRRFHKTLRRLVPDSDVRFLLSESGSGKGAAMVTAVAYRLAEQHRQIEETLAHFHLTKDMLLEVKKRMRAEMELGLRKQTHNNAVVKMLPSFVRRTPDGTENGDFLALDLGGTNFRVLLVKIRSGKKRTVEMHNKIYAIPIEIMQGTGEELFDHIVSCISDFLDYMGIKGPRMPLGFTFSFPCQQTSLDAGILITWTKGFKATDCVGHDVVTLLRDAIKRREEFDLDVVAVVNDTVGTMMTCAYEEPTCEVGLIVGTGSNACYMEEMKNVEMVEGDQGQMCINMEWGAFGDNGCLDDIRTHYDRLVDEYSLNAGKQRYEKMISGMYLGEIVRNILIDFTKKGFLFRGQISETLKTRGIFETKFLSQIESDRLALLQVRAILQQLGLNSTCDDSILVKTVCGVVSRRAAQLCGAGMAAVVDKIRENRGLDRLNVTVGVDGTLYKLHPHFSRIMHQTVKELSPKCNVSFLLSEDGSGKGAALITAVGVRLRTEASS
Briefly: SAR analysis of small molecule inhibitors of hexokinase domain containing I (HKDC1) in the hexokinase 1 selectivity assay. [Related pubchem assays (depositor defined):AID493160, AID493190]. The assay is classed as functional.

Assay [4] deals with Intestinal-type alkaline phosphatase (Mus musculus, UniProt P24822). Briefly: mouse intestinal alkaline phosphatase activators, dose response, biochemical, luminescence, uHTS hits (AID 488783). The assay is classed as functional.

Calls of active or inactive are those of the source.

Sequence of Glucose-6-phosphate 1-dehydrogenase (P11413 whole entry): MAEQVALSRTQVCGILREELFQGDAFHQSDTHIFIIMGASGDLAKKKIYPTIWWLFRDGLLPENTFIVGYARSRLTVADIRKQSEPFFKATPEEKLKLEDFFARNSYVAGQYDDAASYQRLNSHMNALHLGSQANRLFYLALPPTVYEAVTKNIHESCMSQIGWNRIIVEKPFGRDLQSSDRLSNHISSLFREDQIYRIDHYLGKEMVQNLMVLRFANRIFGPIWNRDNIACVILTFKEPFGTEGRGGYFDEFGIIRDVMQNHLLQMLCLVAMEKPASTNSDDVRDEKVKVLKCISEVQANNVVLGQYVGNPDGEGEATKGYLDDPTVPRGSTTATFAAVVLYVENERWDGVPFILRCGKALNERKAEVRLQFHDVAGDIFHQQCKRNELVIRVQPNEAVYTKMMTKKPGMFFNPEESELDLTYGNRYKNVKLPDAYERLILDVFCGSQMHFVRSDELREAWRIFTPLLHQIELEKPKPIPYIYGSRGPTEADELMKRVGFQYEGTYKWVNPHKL
Sequence of Cystic fibrosis transmembrane conductance regulator/Golgi-associated PDZ and coiled-coil motif-containing protein (P13569 whole entry, other chains not shown): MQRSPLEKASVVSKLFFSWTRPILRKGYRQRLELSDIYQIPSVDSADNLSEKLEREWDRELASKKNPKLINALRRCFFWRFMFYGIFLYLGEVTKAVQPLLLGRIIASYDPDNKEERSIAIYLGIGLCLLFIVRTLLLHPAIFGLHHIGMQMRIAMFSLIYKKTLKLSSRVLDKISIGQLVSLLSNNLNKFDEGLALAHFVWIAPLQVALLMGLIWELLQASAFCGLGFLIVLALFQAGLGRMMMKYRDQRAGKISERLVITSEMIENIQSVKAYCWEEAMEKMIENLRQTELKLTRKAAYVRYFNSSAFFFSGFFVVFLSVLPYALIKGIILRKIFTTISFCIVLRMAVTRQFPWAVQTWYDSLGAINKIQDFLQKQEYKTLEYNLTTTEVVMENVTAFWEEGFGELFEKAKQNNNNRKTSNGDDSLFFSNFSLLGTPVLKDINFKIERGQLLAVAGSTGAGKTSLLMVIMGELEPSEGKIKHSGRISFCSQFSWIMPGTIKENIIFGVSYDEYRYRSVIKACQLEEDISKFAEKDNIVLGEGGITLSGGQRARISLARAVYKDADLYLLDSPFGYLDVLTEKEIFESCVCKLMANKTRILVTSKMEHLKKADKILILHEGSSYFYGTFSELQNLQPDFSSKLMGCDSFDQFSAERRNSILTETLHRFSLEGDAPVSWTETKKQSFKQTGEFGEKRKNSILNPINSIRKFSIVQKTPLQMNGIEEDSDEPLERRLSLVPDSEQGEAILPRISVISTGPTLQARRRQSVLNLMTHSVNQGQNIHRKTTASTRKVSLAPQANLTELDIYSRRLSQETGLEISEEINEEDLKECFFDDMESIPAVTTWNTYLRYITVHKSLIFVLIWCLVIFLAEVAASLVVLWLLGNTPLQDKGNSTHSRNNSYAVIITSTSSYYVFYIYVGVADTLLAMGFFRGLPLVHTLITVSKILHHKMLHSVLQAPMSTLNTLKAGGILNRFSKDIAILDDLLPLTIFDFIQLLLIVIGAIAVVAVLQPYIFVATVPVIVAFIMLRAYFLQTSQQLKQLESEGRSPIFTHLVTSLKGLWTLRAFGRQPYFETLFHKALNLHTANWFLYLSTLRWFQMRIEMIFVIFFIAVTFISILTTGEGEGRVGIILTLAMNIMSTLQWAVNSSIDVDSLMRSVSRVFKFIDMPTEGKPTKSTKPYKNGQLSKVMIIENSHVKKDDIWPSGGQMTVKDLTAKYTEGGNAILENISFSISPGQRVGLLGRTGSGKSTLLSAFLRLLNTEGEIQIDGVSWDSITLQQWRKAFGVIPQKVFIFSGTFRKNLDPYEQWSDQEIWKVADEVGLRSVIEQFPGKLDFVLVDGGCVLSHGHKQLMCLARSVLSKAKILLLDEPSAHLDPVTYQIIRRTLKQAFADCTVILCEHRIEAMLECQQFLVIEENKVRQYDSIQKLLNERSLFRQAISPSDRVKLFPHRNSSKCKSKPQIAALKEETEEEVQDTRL
Sequence of Cytochrome P450 2D6 (P10635 whole entry): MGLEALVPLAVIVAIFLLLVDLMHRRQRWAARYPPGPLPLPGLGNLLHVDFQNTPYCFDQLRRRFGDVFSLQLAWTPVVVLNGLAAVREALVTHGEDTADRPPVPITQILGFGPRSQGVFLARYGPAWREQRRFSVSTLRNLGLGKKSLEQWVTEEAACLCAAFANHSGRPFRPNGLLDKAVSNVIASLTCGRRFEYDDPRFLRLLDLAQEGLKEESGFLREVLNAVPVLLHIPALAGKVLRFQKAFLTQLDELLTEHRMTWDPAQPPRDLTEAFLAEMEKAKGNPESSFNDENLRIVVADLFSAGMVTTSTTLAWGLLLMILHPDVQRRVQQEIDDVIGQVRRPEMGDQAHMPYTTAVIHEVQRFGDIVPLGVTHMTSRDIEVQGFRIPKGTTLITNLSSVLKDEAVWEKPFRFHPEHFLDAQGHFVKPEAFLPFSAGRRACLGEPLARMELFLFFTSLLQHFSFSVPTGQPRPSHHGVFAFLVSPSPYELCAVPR
Sequence of Intestinal-type alkaline phosphatase (P24822 whole entry): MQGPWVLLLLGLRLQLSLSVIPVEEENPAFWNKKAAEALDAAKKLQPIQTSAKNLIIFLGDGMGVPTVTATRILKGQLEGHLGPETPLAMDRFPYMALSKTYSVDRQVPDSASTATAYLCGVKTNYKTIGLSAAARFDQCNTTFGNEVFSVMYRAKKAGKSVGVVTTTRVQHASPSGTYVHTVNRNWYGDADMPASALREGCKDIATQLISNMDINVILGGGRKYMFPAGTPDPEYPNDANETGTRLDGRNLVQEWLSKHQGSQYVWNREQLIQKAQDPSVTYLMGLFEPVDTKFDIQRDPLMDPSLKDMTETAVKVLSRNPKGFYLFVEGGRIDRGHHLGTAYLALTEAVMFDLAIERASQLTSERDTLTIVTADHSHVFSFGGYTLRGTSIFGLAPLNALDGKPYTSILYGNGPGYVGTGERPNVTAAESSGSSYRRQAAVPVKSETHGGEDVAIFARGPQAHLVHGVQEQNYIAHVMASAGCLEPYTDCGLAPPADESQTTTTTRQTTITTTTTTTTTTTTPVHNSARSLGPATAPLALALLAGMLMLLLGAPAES

A word on the IC50: it is the concentration at which inhibition is half-maximal. Consider `CCc1nnc(NS(=O)(=O)c2ccc(NC(=S)NC(=O)/C=C/c3ccc(C(C)C)cc3)cc2)s1`, for which the IC50 in assay [1] was 5.99 µM (active).

A word on the EC50: it is the concentration at which the effect is half-maximal. Usually AC50 stands for the concentration giving half of the maximal activity seen. Regarding `O=C(/C=C/c1ccco1)Nc1ccc(Oc2ccccc2)cc1`, the EC50 in the assay “cells” is listed as > 350 µM (not active). Besides, the IC50 at Protein skinhead-1 was > 100 µM (inactive). In addition, the AC50 at Cytochrome P450 2D6 is 4.47 µM (inconclusive); at Cytochrome P450 1A2, 20 µM (inconclusive).

As to `COc1ccc(S(=O)(=O)Nc2cc(SCC(=O)O)c(O)c3ccccc23)cc1`, the IC50 was 21.1 µM (inactive) in assay [2] and > 80 µM (inactive) at Hexokinase-1. In assay [3], the AC50 is 33.1 µM (active).

With `CC1CC(=O)c2c(cc3c(-c4c(O)cc(O)c5c(O)c6c(cc45)OC(C)CC6=O)c(O)cc(O)c3c2O)O1` (centres undefined) [CEPHALOCHROMIN], the EC50 in assay [4] was 19.1 µM (active).

These data come from ChEMBL document CHEMBL1201862, “PubChem BioAssay data set” (2004).
